± gives the standard deviation of the averaged measurements. Blank lines part the entries; values can stand above or below the compound they belong to.
Assay: TIMS collisional cross section (CCS, N2) of the lipid ion; higher = larger ion cross section
Conditions: ionization mode: negative, one isomer drawn
Experimental: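 Lipid extracts of human plasma (NIST SRM 1950), mouse liver or HeLa cells were separated by nanoflow C18 LC (30 min gradient) and analysed by TIMS-PASEF on a timsTOF Pro. Ion mobility was calibrated with the Agilent tuning mix (negative mode ions) and converted to collisional cross sections (Mason–Schamp, N2).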

[1] = sample type: Human plasma, ion (formula + adduct): [C41H74NO8P-H] 1-
[2] = sample type: Mouse Liver, ion (formula + adduct): [C41H74NO8P-H] 1-
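Also: lipids from MTBE extraction, five replicate injections per sample, 100 ms TIMS ramp spanning 0.6–1.95 Vs/cm², lipid identity assigned from PASEF MS/MS spectra.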

TIMS collisional cross section (sample type: Human plasma, ion (formula + adduct): [C46H80NO7P+HCOO] 1-): 296.7 Å² | TIMS collisional cross section (sample type: Human plasma, ion (formula + adduct): [C46H80NO7P-CH3] 1-): 280.2 Å² | TIMS collisional cross section (sample type: Mouse Liver, ion (formula + adduct): [C46H80NO7P-CH3] 1-): 279.6 Å²
SMILES: CC/C=C\C/C=C\C/C=C\C/C=C\C/C=C\C/C=C\CCC(=O)O[C@H](CO/C=C\CCCCCCCCCCCCCC)COP(=O)([O-])OCC[N+](C)(C)C [PC P- 16:0@_22:6]

TIMS collisional cross section (sample type: Human plasma, ion (formula + adduct): [C27H52NO8P+OAcO] 1-): 252.2 Å² | TIMS collisional cross section (sample type: Mouse Liver, ion (formula + adduct): [C27H52NO8P+AcO] 1-): 244.7 Å²
SMILES: C=CC(=O)O[C@H](COC(=O)CCCCCCCCCCCCCCC)COP(=O)([O-])OCC[N+](C)(C)C [PC 16:0_3:1@]

TIMS collisional cross section (sample type: Human plasma, ion (formula + adduct): [C40H80NO7P+HCOO] 1-): 286.1 Å²
SMILES: CCCCCCCC/C=C\CCCCCCCC(=O)O[C@H](COCCCCCCCCCCCCCC)COP(=O)([O-])OCC[N+](C)(C)C [PC O- 14:0@_18:1]

TIMS collisional cross section [1]: 268.8 Å² | TIMS collisional cross section [2]: 268.8 Å²
SMILES: CCCCC/C=C\C/C=C\CCCCCCCC(=O)OCC(COP(=O)(O)OCCN)OC(=O)CCCCCCC/C=C\C/C=C\CCCCC (centres undefined) [PE 18:2_18:2]

TIMS collisional cross section (sample type: Human plasma, ion (formula + adduct): [C36H68NO10P-H] 1-): 269 Å² | TIMS collisional cross section (sample type: Mouse Liver, ion (formula + adduct): [C36H68NO10P-H] 1-): 268.4 Å²
SMILES: CCCC/C=C\CCCCCCCC(=O)OC[C@H](COP(=O)(O)OC[C@H](N)C(=O)O)OC(=O)CCCCCCCCCCCCCCC [PS 14:1@_16:0]

TIMS collisional cross section (sample type: Human plasma, ion (formula + adduct): [C25H39O7P-H] 1-): 211 Å² | TIMS collisional cross section (sample type: Mouse Liver, ion (formula + adduct): [C25H39O7P-H] 1-): 211.6 Å²
SMILES: CC/C=C\C/C=C\C/C=C\C/C=C\C/C=C\C/C=C\CCC(=O)OC[C@@H](O)COP(=O)(O)O [LPA 22:6_0:0]

SMILES: CCCCC/C=C\C/C=C\C/C=C\C/C=C\CCCC(=O)O[C@H](COC(=O)CCCCCCCCCCCCCCC)COP(=O)(O)OCCN [PE 16:0_20:4]
TIMS collisional cross section [2]: 270.7 ± 0.46 Å²

TIMS collisional cross section (sample type: Human plasma, ion (formula + adduct): [C21H41O7P-H] 1-): 205 Å²
SMILES: CCCCCCCC/C=C\CCCCCCCC(=O)OC[C@@H](O)COP(=O)(O)O [LPA 18:1_0:0]

TIMS collisional cross section (sample type: Mouse Liver, ion (formula + adduct): [C47H81O13P-H] 1-): 296.4 Å²
SMILES: CC/C=C\C/C=C\C/C=C\C/C=C\C/C=C\CCCC(=O)OC[C@H](COP(=O)(O)OC1[C@H](O)[C@H](O)C(O)[C@H](O)[C@H]1O)OC(=O)CCCCCCCCCCCCCCCCC (some centres undefined) [PI 20:5_18:0@]

TIMS collisional cross section (sample type: Mouse Liver, ion (formula + adduct): [C39H77O8P+Cl] 1-): 273.4 Å²
SMILES: CCCCCCCCCCCCCCCCCC(=O)OCC(COP(=O)(O)O)OC(=O)CCCCCCCCCCCCCCCCC (centres undefined) [PA 18:0_18:0]

TIMS collisional cross section (sample type: Mouse Liver, ion (formula + adduct): [C29H56NO10P-CH3] 1-): 240.1 Å²
SMILES: CCCCCCCCCCCCCCCC(=O)OC[C@H](COP(=O)([O-])OCC[N+](C)(C)C)OC(=O)CCCC(=O)O [Oxidized PC 16:0_5:0]

TIMS collisional cross section (sample type: Mouse Liver, ion (formula + adduct): [C41H70NO8P-H] 1-): 268.2 Å²
SMILES: CC/C=C\C/C=C\C/C=C\C/C=C\C/C=C\C/C=C\CCC(=O)OC[C@H](COP(=O)(O)OCCN)OC(=O)CCCCCCCCCCCCC [PE 22:6_14:0]

TIMS collisional cross section (sample type: Mouse Liver, ion (formula + adduct): [C47H82NO8P-H] 1-): 287.5 Å²
SMILES: CC/C=C\C/C=C\C/C=C\C/C=C\C/C=C\C/C=C\CCC(=O)OC[C@H](COP(=O)(O)OCCN)OC(=O)CCCCCCCCCCCCCCCCCCC [PE 22:6_20:0]

TIMS collisional cross section (sample type: Mouse Liver, ion (formula + adduct): [C33H64NO10P-CH3] 1-): 255.5 Å²
SMILES: CCCCCCCCCCCCCCCC(=O)OC[C@H](COP(=O)([O-])OCC[N+](C)(C)C)OC(=O)CCCCCCCC(=O)O [Oxidized PC 16:0_9:0@]

TIMS collisional cross section (sample type: Mouse Liver, ion (formula + adduct): [C27H45O12P+AcO] 1-): 244.9 Å²
SMILES: CC/C=C\C/C=C\C/C=C\C/C=C\CCCCC(=O)OC[C@@H](O)COP(=O)(O)OC1[C@H](O)[C@H](O)C(O)[C@H](O)[C@H]1O (some centres undefined) [LPI 18:4_0:0]

TIMS collisional cross section (sample type: Human plasma, ion (formula + adduct): [C40H80NO8P+HCOO] 1-): 289.35 ± 2.3 Å² | TIMS collisional cross section (sample type: Mouse Liver, ion (formula + adduct): [C40H80NO8P+HCOO] 1-): 287.7 Å²
SMILES: CCCCCCCCCCCCCCCC(=O)OC[C@H](COP(=O)([O-])OCC[N+](C)(C)C)OC(=O)CCCCCCCCCCCCCCC [PC 16:0_16:0]

TIMS collisional cross section (sample type: Human plasma, ion (formula + adduct): [C30H58NO7P+HCOO] 1-): 254.2 Å²
SMILES: CCCCC/C=C\C/C=C\CCCCCCCCCCCC(=O)OC[C@@H](O)COP(=O)([O-])OCC[N+](C)(C)C [LPC 22:2_0:0]

TIMS collisional cross section (sample type: Mouse Liver, ion (formula + adduct): [C39H76NO8P-CH3] 1-): 265 Å²
SMILES: CCCCCCC/C=C\CCCCCCCC(=O)O[C@H](COC(=O)CCCCCCCCCCCCC)COP(=O)([O-])OCC[N+](C)(C)C [PC 14:0@_17:1]

TIMS collisional cross section [1]: 289.2 Å² | TIMS collisional cross section (sample type: Mouse Liver, ion (formula + adduct): [C41H74NO8P-CH3] 1-): 267.1 Å² | TIMS collisional cross section [2]: 272.3 Å²
SMILES: CCCCC/C=C\C/C=C\C/C=C\C/C=C\CCCC(=O)O[C@H](COC(=O)CCCCCCCCCCCC)COP(=O)([O-])OCC[N+](C)(C)C [PC 13:0@_20:4]

TIMS collisional cross section (sample type: Human plasma, ion (formula + adduct): [C27H54NO8P-H] 1-): 239 ± 3 Å²
SMILES: CCCCCCCCCCCCCCCCC(=O)OC[C@H](COP(=O)([O-])OCC[N+](C)(C)C)OC(C)=O [PC 17:0@_2:0]

TIMS collisional cross section (sample type: Mouse Liver, ion (formula + adduct): [C41H82NO8P-H] 1-): 275.1 Å²
SMILES: CCCCCCCCCCCCCCCCCC(=O)OCC(COP(=O)(O)OCCN)OC(=O)CCCCCCCCCCCCCCCCC (centres undefined) [PE 18:0_18:0]

TIMS collisional cross section (sample type: Mouse Liver, ion (formula + adduct): [C29H56NO8P+AcO] 1-): 252.1 Å²
SMILES: C=CCCC(=O)O[C@H](COC(=O)CCCCCCCCCCCCCCC)COP(=O)([O-])OCC[N+](C)(C)C [PC 16:0_5:1]

TIMS collisional cross section (sample type: Human plasma, ion (formula + adduct): [C34H62O5-H] 1-): 245.3 Å²
SMILES: CCCCC/C=C\CCCCCCCC(=O)OC[C@H](CO)OC(=O)CCCCCCC/C=C\CCCCCC [DG 15:1@_16:1_0:0]

TIMS collisional cross section (sample type: Mouse Liver, ion (formula + adduct): [C50H75O10P-H] 1-): 294.8 Å²
SMILES: CC/C=C\C/C=C\C/C=C\C/C=C\C/C=C\C/C=C\CCC(=O)OC[C@H](COP(=O)(O)OC[C@@H](O)CO)OC(=O)CC/C=C\C/C=C\C/C=C\C/C=C\C/C=C\C/C=C\CC [PG 22:6_22:6]

TIMS collisional cross section (sample type: Human plasma, ion (formula + adduct): [C45H78NO7P-CH3] 1-): 276.8 Å²
SMILES: CC/C=C\C/C=C\C/C=C\C/C=C\C/C=C\C/C=C\CCC(=O)O[C@H](CO/C=C\CCCCCCCCCCCCCCCC)COP(=O)(O)OCCN [PE P- 18:0@_22:6]

TIMS collisional cross section (sample type: Human plasma, ion (formula + adduct): [C42H80NO7P-CH3] 1-): 272.4 Å² | TIMS collisional cross section (sample type: Mouse Liver, ion (formula + adduct): [C42H80NO7P-CH3] 1-): 272.4 Å²
SMILES: CCCCC/C=C\C/C=C\CCCCCCCC(=O)O[C@H](COCCCCCCCC/C=C\CCCCCC)COP(=O)([O-])OCC[N+](C)(C)C [PC O- 16:1@_18:2]

TIMS collisional cross section (sample type: Mouse Liver, ion (formula + adduct): [C39H74NO8P-H] 1-): 266.3 Å²
SMILES: CCCCC/C=C\C/C=C\CCCCCCCC(=O)O[C@H](COC(=O)CCCCCCCCCCCC)COP(=O)([O-])OCC[N+](C)(C)C [PC 13:0@_18:2]

TIMS collisional cross section (sample type: Human plasma, ion (formula + adduct): [C45H78NO8P+HCOO] 1-): 294.4 Å² | TIMS collisional cross section (sample type: Mouse Liver, ion (formula + adduct): [C45H78NO8P+HCOO] 1-): 294.4 Å²
SMILES: CC/C=C\C/C=C\C/C=C\C/C=C\C/C=C\C/C=C\CCC(=O)O[C@H](COC(=O)CCCCCCCCCCCCCC)COP(=O)([O-])OCC[N+](C)(C)C [PC 15:0_22:6]

TIMS collisional cross section (sample type: Mouse Liver, ion (formula + adduct): [C44H76NO10P-H] 1-): 284.6 Å²
SMILES: CC/C=C\C/C=C\C/C=C\C/C=C\C/C=C\CCCC(=O)OC[C@H](COP(=O)(O)OC[C@H](N)C(=O)O)OC(=O)CCCCCCCCCCCCCCCCC [PS 20:5_18:0]

TIMS collisional cross section (sample type: Human plasma, ion (formula + adduct): [C41H82NO8P+HCOO] 1-): 290.3 Å²
SMILES: CCCCCCCCCCCCCCCCC(=O)O[C@H](COC(=O)CCCCCCCCCCCCCCC)COP(=O)([O-])OCC[N+](C)(C)C [PC 16:0_17:0]

TIMS collisional cross section (sample type: Mouse Liver, ion (formula + adduct): [C45H78NO8P-H] 1-): 280.7 Å²
SMILES: CC/C=C\C/C=C\C/C=C\C/C=C\C/C=C\C/C=C\CCC(=O)O[C@H](COC(=O)CCCCCCCCCCCCCC)COP(=O)([O-])OCC[N+](C)(C)C [PC 15:0@_22:6]

TIMS collisional cross section (sample type: Mouse Liver, ion (formula + adduct): [C42H76NO8P-H] 1-): 272.8 Å²
SMILES: CCCCC/C=C\C/C=C\C/C=C\C/C=C\CCCC(=O)O[C@H](COC(=O)CCCCCCCCCCCCC)COP(=O)([O-])OCC[N+](C)(C)C [PC 14:0@_20:4]

TIMS collisional cross section (sample type: Mouse Liver, ion (formula + adduct): [C45H77O13P-H] 1-): 290.1 ± 1.1 Å²
SMILES: CC/C=C\C/C=C\C/C=C\C/C=C\C/C=C\CCCC(=O)OC[C@H](COP(=O)(O)OC1[C@H](O)[C@H](O)C(O)[C@H](O)[C@H]1O)OC(=O)CCCCCCCCCCCCCCC (some centres undefined) [PI 20:5@_16:0]

— the supplement of paper PMC6965134
